From PubChem BioAssay (NCI)
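Five concentrations, 48 hours, 96-well plates. GI50 marks 50% less growth. TGI denotes the concentration required for complete inhibition of growth.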

Columns and labels:
Assay in all cases: inhibition of tumour cell growth, NCI panel, 48 h
HCT-15 colon = tested on: HCT-15 colon
HCC-2998 colon = tested on: HCC-2998 colon
K-562 leukemia = tested on: K-562 leukemia
OVCAR-4 ovarian = tested on: OVCAR-4 ovarian
SK-OV-3 ovarian = tested on: SK-OV-3 ovarian
SF-539 CNS = tested on: SF-539 CNS
786-0 renal = tested on: 786-0 renal
RPMI-8226 leukemia = tested on: RPMI-8226 leukemia
NCI-H23 lung = tested on: NCI-H23 lung
SK-MEL-28 melanoma = tested on: SK-MEL-28 melanoma
UO-31 renal = tested on: UO-31 renal
SR leukemia = tested on: SR leukemia
NCI-H460 lung = tested on: NCI-H460 lung
MALME-3M melanoma = tested on: MALME-3M melanoma
T-47D breast = tested on: T-47D breast
NCI/ADR-RES ovarian = tested on: NCI/ADR-RES ovarian
HT29 colon = tested on: HT29 colon
HL-60(TB) leukemia = tested on: HL-60(TB) leukemia
TK-10 renal = tested on: TK-10 renal
MCF7 breast = tested on: MCF7 breast
MDA-MB-435 = tested on: MDA-MB-435
UACC-257 melanoma = tested on: UACC-257 melanoma
A549 NSCLC = tested on: A549 NSCLC
SNB-19 CNS = tested on: SNB-19 CNS
UACC-62 melanoma = tested on: UACC-62 melanoma
OVCAR-8 ovarian = tested on: OVCAR-8 ovarian
BT-549 breast = tested on: BT-549 breast
SF-268 CNS = tested on: SF-268 CNS
CAKI-1 renal = tested on: CAKI-1 renal
HOP-62 NSCLC = tested on: HOP-62 NSCLC
M14 melanoma = tested on: M14 melanoma
CCRF-CEM leukemia = tested on: CCRF-CEM leukemia
SW-620 colon = tested on: SW-620 colon
OVCAR-5 ovarian = tested on: OVCAR-5 ovarian
SK-MEL-2 melanoma = tested on: SK-MEL-2 melanoma
NCI-H522 lung = tested on: NCI-H522 lung
SF-295 CNS = tested on: SF-295 CNS
SN12C renal = tested on: SN12C renal
ACHN renal = tested on: ACHN renal
MOLT-4 leukemia = tested on: MOLT-4 leukemia
SK-MEL-5 melanoma = tested on: SK-MEL-5 melanoma
PC-3 prostate = tested on: PC-3 prostate
KM12 colon = tested on: KM12 colon
IGROV1 ovarian = tested on: IGROV1 ovarian
MDA-MB-231 breast = tested on: MDA-MB-231 breast
U251 CNS = tested on: U251 CNS
COLO 205 colon = tested on: COLO 205 colon
NCI-H226 lung = tested on: NCI-H226 lung
HS 578T breast = tested on: HS 578T breast
A498 renal = tested on: A498 renal
LOX IMVI melanoma = tested on: LOX IMVI melanoma
OVCAR-3 ovarian = tested on: OVCAR-3 ovarian
HCT-116 colon = tested on: HCT-116 colon
HOP-92 NSCLC = tested on: HOP-92 NSCLC
SNB-75 CNS = tested on: SNB-75 CNS
DU-145 prostate = tested on: DU-145 prostate
RXF 393 renal = tested on: RXF 393 renal

Cn1cc(C2=C(c3cn(C)c4cc(C(=O)O)ccc34)C(=O)NC2=O)c2ccccc21
GI50 (HCT-15 colon): > 25 µM
TGI (HCT-15 colon): > 25 µM
GI50 (HCC-2998 colon): > 25 µM
TGI (HCC-2998 colon): > 25 µM
GI50 (K-562 leukemia): > 25 µM
TGI (K-562 leukemia): > 25 µM
GI50 (OVCAR-4 ovarian): > 25 µM
TGI (OVCAR-4 ovarian): > 25 µM
GI50 (SK-OV-3 ovarian): > 25 µM
TGI (SK-OV-3 ovarian): > 25 µM
GI50 (SF-539 CNS): > 25 µM
TGI (SF-539 CNS): > 25 µM
GI50 (786-0 renal): > 25 µM
TGI (786-0 renal): > 25 µM
GI50 (RPMI-8226 leukemia): > 25 µM
TGI (RPMI-8226 leukemia): > 25 µM
GI50 (NCI-H23 lung): > 25 µM
TGI (NCI-H23 lung): > 25 µM
GI50 (SK-MEL-28 melanoma): > 25 µM
TGI (SK-MEL-28 melanoma): > 25 µM
GI50 (UO-31 renal): > 25 µM
TGI (UO-31 renal): > 25 µM
GI50 (SR leukemia): > 13.4 µM
TGI (SR leukemia): > 25 µM
GI50 (NCI-H460 lung): > 25 µM
TGI (NCI-H460 lung): > 25 µM
GI50 (MALME-3M melanoma): > 25 µM
TGI (MALME-3M melanoma): > 25 µM
GI50 (T-47D breast): 21.1 µM
TGI (T-47D breast): > 25 µM
GI50 (NCI/ADR-RES ovarian): > 25 µM
TGI (NCI/ADR-RES ovarian): > 25 µM
GI50 (HT29 colon): > 25 µM
TGI (HT29 colon): > 25 µM
GI50 (HL-60(TB) leukemia): > 25 µM
TGI (HL-60(TB) leukemia): > 25 µM
GI50 (TK-10 renal): > 25 µM
TGI (TK-10 renal): > 25 µM
GI50 (MCF7 breast): > 25 µM
TGI (MCF7 breast): > 25 µM
GI50 (MDA-MB-435): > 25 µM
TGI (MDA-MB-435): > 25 µM
GI50 (UACC-257 melanoma): > 25 µM
TGI (UACC-257 melanoma): > 25 µM
GI50 (A549 NSCLC): > 25 µM
TGI (A549 NSCLC): > 25 µM
GI50 (SNB-19 CNS): > 25 µM
TGI (SNB-19 CNS): > 25 µM
GI50 (UACC-62 melanoma): > 25 µM
TGI (UACC-62 melanoma): > 25 µM
GI50 (OVCAR-8 ovarian): > 25 µM
TGI (OVCAR-8 ovarian): > 25 µM
GI50 (BT-549 breast): > 25 µM
TGI (BT-549 breast): > 25 µM
GI50 (SF-268 CNS): > 25 µM
TGI (SF-268 CNS): > 25 µM
GI50 (CAKI-1 renal): > 17.2 µM
TGI (CAKI-1 renal): > 25 µM
GI50 (HOP-62 NSCLC): > 25 µM
TGI (HOP-62 NSCLC): > 25 µM
GI50 (M14 melanoma): > 25 µM
TGI (M14 melanoma): > 25 µM
GI50 (CCRF-CEM leukemia): > 20.4 µM
TGI (CCRF-CEM leukemia): > 25 µM
GI50 (SW-620 colon): > 25 µM
TGI (SW-620 colon): > 25 µM
GI50 (OVCAR-5 ovarian): > 25 µM
TGI (OVCAR-5 ovarian): > 25 µM
GI50 (SK-MEL-2 melanoma): > 15.5 µM
TGI (SK-MEL-2 melanoma): 25 µM
GI50 (NCI-H522 lung): > 12.1 µM
TGI (NCI-H522 lung): > 20.1 µM
GI50 (SF-295 CNS): > 25 µM
TGI (SF-295 CNS): > 25 µM
GI50 (SN12C renal): > 25 µM
TGI (SN12C renal): > 25 µM
GI50 (ACHN renal): > 25 µM
TGI (ACHN renal): > 25 µM
GI50 (MOLT-4 leukemia): > 25 µM
TGI (MOLT-4 leukemia): > 25 µM
GI50 (SK-MEL-5 melanoma): > 25 µM
TGI (SK-MEL-5 melanoma): > 25 µM
GI50 (PC-3 prostate): > 25 µM
TGI (PC-3 prostate): > 25 µM
GI50 (KM12 colon): > 25 µM
TGI (KM12 colon): > 25 µM
GI50 (IGROV1 ovarian): > 25 µM
TGI (IGROV1 ovarian): > 25 µM
GI50 (MDA-MB-231 breast): > 25 µM
TGI (MDA-MB-231 breast): > 25 µM
GI50 (U251 CNS): > 25 µM
TGI (U251 CNS): > 25 µM
GI50 (COLO 205 colon): > 25 µM
TGI (COLO 205 colon): > 25 µM
GI50 (NCI-H226 lung): > 25 µM
TGI (NCI-H226 lung): > 25 µM
GI50 (HS 578T breast): 5.86 µM
TGI (HS 578T breast): > 25 µM
GI50 (A498 renal): > 12 µM
TGI (A498 renal): > 25 µM
GI50 (LOX IMVI melanoma): > 13.9 µM
TGI (LOX IMVI melanoma): > 25 µM
GI50 (OVCAR-3 ovarian): > 25 µM
TGI (OVCAR-3 ovarian): > 25 µM
GI50 (HCT-116 colon): > 25 µM
TGI (HCT-116 colon): > 25 µM
GI50 (HOP-92 NSCLC): > 25 µM
TGI (HOP-92 NSCLC): > 25 µM
GI50 (SNB-75 CNS): 4.96 µM
TGI (SNB-75 CNS): > 25 µM
GI50 (DU-145 prostate): > 25 µM
TGI (DU-145 prostate): > 25 µM
GI50 (RXF 393 renal): > 19.8 µM
TGI (RXF 393 renal): > 25 µM
